In data set [1] the target is β-glucosidase (almonds). The following applies: data for 7–9 and DNJ included for comparative purposes; cited from earlier work.
Data set [2] addresses T1, α-glucosidase (yeast) (Saccharomyces cerevisiae, UniProt P53341).
T1 construct: purchased Sigma Chemical Co., St. Louis, MO, USA
Set-up: method as in doi:10.1080/07328303.2020.1837150. The conditions noted are these: data for 7–9 and DNJ included for comparative purposes; cited from earlier work.

The target of data set [3] is β-glucosidase (almonds). As to the kind of experiment: β-glucosidase (almonds) inhibition assay, p-nitrophenyl glycopyranoside substrate. The conditions noted are these: 50 mM phosphate buffer pH 6.8, 37 °C; mean ± SD, three independent experiments. The data set is classed as biochemical. On the procedure:
(§1) Compounds 10–20 (except 15 for solubility reasons) were evaluated by in vitro α-glucosidase (yeast), β-glucosidase (almonds) inhibition studies.
(§2) Two glycosidases, α-glucosidase (yeast) and β-glucosidase (almonds), and their corresponding substrates, p-nitrophenyl glycopyranosides, were purchased from Sigma Chemical Co., St. Louis, MO, USA. Other commercial reagents and solvents were used as received. Reactions were monitored by Thin Layer Chromatography (TLC) analyses using silica gel GF254 plates bearing a 0.25 mm layer. Visualization of compounds was detected by short-wave UV fluorescence (λ = 254 nm) and/or by dipping into 5% phosphomolybdic acid in EtOH. Column chromatography was carried out by silica gel (200–300 mesh). NMR spectra (^1H and ^13C) were recorded with Bruker AV III 500 MHz spectrometer using CDCl3 (22–33), D2O (10–13, 16–20) or CD3OD (14, 15) as solvents. High-resolution mass spectra (HRMS) were obtained by direct injection on a mass spectrometer (Thermo Scientific LTQ Orbitrap XL, Waltham, MA, USA) equipped with an electrospray ion source in positive mode (see Supplementary Materials).
(§3) The α-glucosidase and β-glucosidase assays were performed in 50 mM phosphate buffer (pH 6.8) at 37 °C. The inhibitors were pre-incubated with the enzyme solutions at 37 °C for 15 min, and then the corresponding substrates were added. After the enzymatic reaction was incubated at 37 °C for 15 min., it was quenched by adding Na2CO3. Absorbance readings were taken on a BioTek µQuant Microplate Spectrophotometer at 405 nm. Experiments were performed in triplicate. The IC50 values were determined graphically using GraphPad Prism (version 8.0).

Data set [4] has as its target T1, α-glucosidase (yeast). The data set can be described thus: α-glucosidase (yeast) inhibition assay, p-nitrophenyl glycopyranoside substrate. The following applies: 50 mM phosphate buffer pH 6.8, 37 °C; mean ± SD, three independent experiments. The data set is classed as biochemical. How it is done: as §1, §2, §3
The target in data set [5] is T2, yeast α-glucosidase (Saccharomyces cerevisiae, UniProt P53341).
T2 construct: purchased Sigma Chemical Co., St. Louis, MO, USA
T2 sequence (P53341 whole entry): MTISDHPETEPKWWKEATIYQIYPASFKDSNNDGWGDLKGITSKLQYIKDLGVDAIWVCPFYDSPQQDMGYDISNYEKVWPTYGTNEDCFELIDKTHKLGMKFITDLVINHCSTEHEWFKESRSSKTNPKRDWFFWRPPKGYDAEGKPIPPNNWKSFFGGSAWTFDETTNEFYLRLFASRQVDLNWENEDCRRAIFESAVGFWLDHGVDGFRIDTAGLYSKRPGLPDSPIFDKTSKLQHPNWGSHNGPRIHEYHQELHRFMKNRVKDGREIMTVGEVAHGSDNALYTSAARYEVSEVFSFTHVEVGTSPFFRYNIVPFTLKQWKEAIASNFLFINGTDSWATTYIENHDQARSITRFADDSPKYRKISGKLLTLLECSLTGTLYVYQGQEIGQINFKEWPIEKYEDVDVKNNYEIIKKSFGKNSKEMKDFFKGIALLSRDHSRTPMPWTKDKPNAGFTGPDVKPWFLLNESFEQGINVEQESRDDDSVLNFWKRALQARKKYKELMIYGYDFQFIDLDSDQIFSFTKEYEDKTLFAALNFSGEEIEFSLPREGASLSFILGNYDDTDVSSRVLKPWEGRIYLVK
The data set can be described thus: Kinetics of enzyme inhibition (Lineweaver–Burk plots). It is filed as biochemical. The conditions noted are these: for mode of inhibition: Lineweaver–Burk plot, same Vmax; for Ki: substrate para-nitrophenyl α-D-glucopyranoside, pH 6.8, 37 °C, read-out: inhibition constant (Ki). On the procedure:
In order to gain further insight into how these hybrids interact with α-glucosidase, the mode of inhibition for compounds 18 and 19 as representative examples was analyzed using the Lineweaver–Burk plot (Figure 2).
The inhibition types of the selected compounds were determined from Lineweavere–Burk plots. […] The enzyme reaction was performed according to the conditions described above.
Figure 2 Double-reciprocal plots of the inhibition kinetics of yeast α-glucosidase by compounds 18 (a), 19 (b).

Data set [6] in a line: Cell proliferation / viability CCK-8 assay. The conditions noted are these: human, HL60 cells; HL60, 50 µM, 24 h, CCK-8. It is filed as cell-based. On the procedure: (§4) Compounds 9, 13 and 17–20 with better inhibitory activity on α-glucosidase were selected to study the effect on cell viability and proliferation by CCK-8 assay (Figure 5). […] When viability was measured at 50 µM for these compounds, the viability of compound 19 was 96.97% compared with 20.89% for compound 20. […] With the increase in compound concentration, a lot of dead cells and more cell debris were observed, and the culture medium became muddy for 20, which was not obviously observed for 9, 13 and 17–19.
(§5) HL60 cells in DMEM supplemented with 10% fetal bovine serum were seeded at a density of 5 × 10^3 cells/well in a 96-well plate and incubated at 37 °C for 24 h. The medium was substituted with fresh medium containing a range of concentrations of inhibitors in DMSO and cultured for another 24 h. CCK-8 solution (10 µL) was added to each well incubated at 37 °C for 1 h. The absorbance was read on a BioTek µQuant Microplate Spectrophotometer at 450 nm. The cell vitality curve was depicted with GraphPad Prism (version 8.0).
Background: Tetrazolium assays rely on reduction of a dye to a coloured formazan, in cell work by metabolically active cells.

The test system of data set [7] is HL60 cells. As to the kind of experiment: Cell proliferation / viability CCK-8 assay. It is filed as cell-based. The following applies: for cell survival rate: HL60, 80 µM, 24 h, CCK-8. How it is done:
as §4, §5

Each structure is given as a SMILES string. “Also recorded” adds a separate entry of the source. Where two headings read alike, the source gives them in different places.

T1 sequence (P53341 whole entry): as above

In the case of `OC[C@@H]1[C@@H](O)[C@H](O)[C@@H](O)CN1CCCCn1cc(-c2ccccc2)nn1` [Compound 7], the IC50 (usually the point on the concentration scale where inhibition reaches its midpoint) in data set [1] was greater than 1000 µM; in data set [2], 551 ± 25 µM.

As to `Cc1ccc(-c2cn(CCCCN3C[C@H](O)[C@@H](O)[C@H](O)[C@H]3CO)nn2)cc1` [Compound 8], the values for the IC50 in data set [1] and in data set [2] were greater than 1000 µM and 324 ± 65 µM, respectively.

Consider `CCCCCc1ccc(-c2cn(CCCCN3C[C@H](O)[C@@H](O)[C@H](O)[C@H]3CO)nn2)cc1` [Compound 9], for which the IC50 in data set [1] was 665 ± 57 µM; in data set [2], 63 ± 6 µM.

For the compound `CCc1ccc(-c2cn(CCCCN3C[C@H](O)[C@@H](O)[C@H](O)[C@H]3CO)nn2)cc1` [Compound 10, (2R,3R,4R,5S)-1-(4-(4-(4-ethylphenyl)-1H-1,2,3-triazol-1-yl)butyl)-2-(hydroxymethyl)piperidine-3,4,5-triol], the IC50 is greater than 1000 µM in data set [3] and 244 ± 32 µM in data set [4].

Take `CCCc1ccc(-c2cn(CCCCN3C[C@H](O)[C@@H](O)[C@H](O)[C@H]3CO)nn2)cc1` [Compound 11, (2R,3R,4R,5S)-2-(hydroxymethyl)-1-(4-(4-(4-propylphenyl)-1H-1,2,3-triazol-1-yl)butyl)piperidine-3,4,5-triol]: the figures for the IC50 in data set [3] and in data set [4] were 739 ± 78 µM and 171 ± 25 µM, respectively.

For `CCCCc1ccc(-c2cn(CCCCN3C[C@H](O)[C@@H](O)[C@H](O)[C@H]3CO)nn2)cc1` [Compound 12, (2R,3R,4R,5S)-1-(4-(4-(4-butylphenyl)-1H-1,2,3-triazol-1-yl)butyl)-2-(hydroxymethyl)piperidine-3,4,5-triol], the IC50 in data set [3] was determined as 770 ± 92 µM; in data set [4], 105 ± 9 µM.

With `CCCCCCc1ccc(-c2cn(CCCCN3C[C@H](O)[C@@H](O)[C@H](O)[C@H]3CO)nn2)cc1` [Compound 13, (2R,3R,4R,5S)-1-(4-(4-(4-hexylphenyl)-1H-1,2,3-triazol-1-yl)butyl)-2-(hydroxymethyl)piperidine-3,4,5-triol], the figures for the IC50 in data set [3] and in data set [4] were 529 ± 41 µM and 82 ± 5 µM, respectively.

On to `OC[C@@H]1[C@@H](O)[C@H](O)[C@@H](O)CN1CCCCCCn1cc(-c2ccccc2)nn1` [Compound 14, (2R,3R,4R,5S)-2-(hydroxymethyl)-1-(6-(4-phenyl-1H-1,2,3-triazol-1-yl)hexyl)piperidine-3,4,5-triol], for which the IC50 in data set [3] turned out to be 130 ± 5 µM; in data set [4] it was 130 ± 9 µM.

On to `CCc1ccc(-c2cn(CCCCCCN3C[C@H](O)[C@@H](O)[C@H](O)[C@H]3CO)nn2)cc1` [Compound 16, (2R,3R,4R,5S)-1-(6-(4-(4-ethylphenyl)-1H-1,2,3-triazol-1-yl)hexyl)-2-(hydroxymethyl)piperidine-3,4,5-triol], for which the half-inhibitory concentration (IC50) in data set [3] is 65 ± 2 µM; in data set [4] it was 68 ± 4 µM.

With `CCCc1ccc(-c2cn(CCCCCCN3C[C@H](O)[C@@H](O)[C@H](O)[C@H]3CO)nn2)cc1` [Compound 17, (2R,3R,4R,5S)-2-(hydroxymethyl)-1-(6-(4-(4-propylphenyl)-1H-1,2,3-triazol-1-yl)hexyl)piperidine-3,4,5-triol], the IC50 in data set [3] came out at 62 ± 4 µM; in data set [4], 14 ± 1 µM.

As to `CCCCc1ccc(-c2cn(CCCCCCN3C[C@H](O)[C@@H](O)[C@H](O)[C@H]3CO)nn2)cc1` [Compound 18, (2R,3R,4R,5S)-1-(6-(4-(4-butylphenyl)-1H-1,2,3-triazol-1-yl)hexyl)-2-(hydroxymethyl)piperidine-3,4,5-triol], in data set [5], the mode of inhibition entry is “competitive” and the Ki (usually a measure of affinity in units of concentration, obtained from inhibition or displacement) came out at 3.8 µM. Moreover, the IC50 in data set [3] was determined as 69 ± 5 µM. The same compound showed an IC50 in data set [4] of 11 ± 1 µM.

As for `CCCCCc1ccc(-c2cn(CCCCCCN3C[C@H](O)[C@@H](O)[C@H](O)[C@H]3CO)nn2)cc1` [Compound 19, (2R,3R,4R,5S)-2-(hydroxymethyl)-1-(6-(4-(4-pentylphenyl)-1H-1,2,3-triazol-1-yl)hexyl)piperidine-3,4,5-triol], in data set [5], the mode of inhibition entry is reported as “competitive” and the inhibition constant (Ki) turned out to be 3.7 µM. Also, the viability (usually a per cent measure of how many cells are alive, often set against a control) at 24 h, 50 µM in data set [6] amounted to 97%. Besides, the cell survival rate in data set [7] is listed as 71.28%. For the same compound, it took 73 ± 7 µM to reach half-maximal inhibition in data set [3] (IC50). In data set [4], this compound showed an IC50 of 11 ± 1 µM.

With `CCCCCCc1ccc(-c2cn(CCCCCCN3C[C@H](O)[C@@H](O)[C@H](O)[C@H]3CO)nn2)cc1` [Compound 20, (2R,3R,4R,5S)-1-(6-(4-(4-hexylphenyl)-1H-1,2,3-triazol-1-yl)hexyl)-2-(hydroxymethyl)piperidine-3,4,5-triol], the viability at 24 h, 50 µM in data set [6] was 20.9%. The “cytotoxicity” value in data set [7] (HL60, 50 µM) is listed as “exhibited cytotoxicity; also recorded: cytotoxic”. This compound also showed a cell survival rate in data set [7] of 6.66%. The IC50 in data set [3] stood at 77 ± 4 µM; in data set [4], 16 ± 2 µM.

`OC[C@H]1NC[C@H](O)[C@@H](O)[C@@H]1O` [DNJ, 1-deoxynojirimycin]: the IC50 in data set [1] is […].

The values are drawn from article PMC11547804, “Synthesis and Evaluation of Phenyltriazole-Deoxynojirimycin Hybrids as Potent α-Glucosidase Inhibitors” (Molecules, 2024).
